Experimental data from ChEMBL document CHEMBL1121754 (J Med Chem, 1981).

Columns and labels:
Oryctolagus cuniculus = organism: Oryctolagus cuniculus; assay: Hyperthermic potency in rabbit relative to DOM; format: functional
[1] = biological target: 5-hydroxytryptamine receptor 2B (Rattus norvegicus, UniProt P30994); assay: Affinity against 5-hydroxytryptamine 2B receptor in the isolated rat stomach fundus; format: tissue-based; details: read-out: pA2 (converted)
[2] = Equilibrium constant for DNB complex formation; parameters: unit not given here
Homo sapiens = organism: Homo sapiens; assay: Human hallucinogenic activity relative to mescaline; format: functional
[3] = Partition coefficient (logP); format: physicochemical; details: octanol/water

Chain of 5-hydroxytryptamine receptor 2B (P30994 whole entry): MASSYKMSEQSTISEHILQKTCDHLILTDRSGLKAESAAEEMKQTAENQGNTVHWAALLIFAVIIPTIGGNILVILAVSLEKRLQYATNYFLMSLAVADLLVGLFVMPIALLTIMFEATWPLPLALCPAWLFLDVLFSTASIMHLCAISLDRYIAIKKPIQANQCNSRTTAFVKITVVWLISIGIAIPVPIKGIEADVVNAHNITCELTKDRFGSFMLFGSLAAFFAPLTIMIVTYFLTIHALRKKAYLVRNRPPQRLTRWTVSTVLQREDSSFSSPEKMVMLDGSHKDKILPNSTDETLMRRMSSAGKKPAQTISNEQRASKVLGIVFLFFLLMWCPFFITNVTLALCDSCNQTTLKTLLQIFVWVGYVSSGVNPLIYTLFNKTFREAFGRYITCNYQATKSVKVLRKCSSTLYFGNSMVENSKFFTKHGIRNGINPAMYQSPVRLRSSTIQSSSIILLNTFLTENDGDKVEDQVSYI

SMILES | Relative activity (Oryctolagus cuniculus) | Kb [1] [µM] | KDNB [2] | Relative activity (Homo sapiens) | logP ([3]; read-out: logP) | logP [3]
COc1cc(CC(C)N)cc(OC)c1OC (stereo not drawn) | 3.6 | 2.51 | 3.14 | 2.2 | 1.48 | 
COc1cccc(OC)c1CC(C)N (stereo not drawn) |  | 8.13 | 1.49 |  |  | 
COc1ccc(CC(C)N)c(OC)c1 (stereo not drawn) | 2.5 | 2.51 | 1.32 | 5 | 1.75 | 
COc1ccc(OC)c(CC(C)N)c1 (stereo not drawn) |  |  |  |  | 1.88 | 1.72
COc1cc(OC)c(OC)cc1CC(C)N (stereo not drawn) | 11.8 | 0.155 | 1.7 | 17 | 1.74 | 1.1
COc1cc(SC)c(OC)cc1CC(C)N (stereo not drawn) | 53.9 |  |  | 50 | 2.17 | 
COc1ccc(CC(C)N)cc1OC (stereo not drawn) | <<0.3 | 3.55 | 1.95 | <1 | 1 | 1.2
CC(N)Cc1ccccc1 (stereo not drawn) |  |  | 0.55 |  |  | 
COc1cc(CC(C)N)c(OC)cc1Br (stereo not drawn) [BROLAMFETAMINE] |  |  |  |  | 2.58 | 2.54
COc1cc(C)c(CC(C)N)cc1OC (stereo not drawn) | 0.5 | 1.38 |  |  | 1.66 | 
COc1ccc(CC(C)N)cc1 (stereo not drawn) [PARA-METHOXYAMPHETAMINE] |  | 6.92 | 1.02 | 4 | 1.77 | 
COc1ccc(CC(C)N)c(OC)c1OC (stereo not drawn) | <<0.3 | 8.51 | 1.7 | <2 | 1.36 | 
CC(N)Cc1ccc2c(c1)OCO2 (stereo not drawn) [TENAMFETAMINE] |  |  | 0.68 |  | 1.63 | 
COc1cc(CC(C)N)c(OC)cc1C (stereo not drawn) [DOM] | 100 | 0.0759 |  | 80 | 2.08 | 2.24
COc1cc(OC)c(SC)cc1CC(C)N (stereo not drawn) | 2.8 | 1.7 |  | 1 | 2.22 | 
COc1cc(CC(C)N)c(SC)cc1OC (stereo not drawn) | 1.7 |  |  |  | 1.71 | 
COc1cc(OC)c(CC(C)N)c(OC)c1 (stereo not drawn) | 3.1 | 0.525 | 2.09 | 10 | 1.57 | 
COc1cccc(CC(C)N)c1 (stereo not drawn) |  | 1.2 | 0.96 |  |  | 
COc1cc(OC)c(CC(C)N)cc1Br (stereo not drawn) | 2.3 |  |  | 4 | 2.61 | 
COc1cc(Br)c(CC(C)N)cc1OC (stereo not drawn) | 3.4 | 1.78 |  |  | 1.96 | 
COc1cc(OC)c(CC(C)N)cc1C (stereo not drawn) | 0.9 | 2.45 |  |  | 2.31 | 
